# Assay results as given in US7074888B1, “Mimotopes and anti-mimotopes of human platelet glycoprotein Ib/IX” (The Research Foundation of State University of New York, priority 1995, dated 2006).
# Ends that are not written are not given here.
# Experiments:
# [1] = system: mab C-34; experiment: Neutralization of mab C-34 inhibition of ristocetin-induced aggregation in citrated platelet-rich plasma by mimotope peptide; format: cell-based, human
# Protocol: (§1) Citrated human platelet-rich plasma (PRP) was prepared by standard methods (Miller et al. 1983). For study of C-34 neutralization by mimotope peptide, 350 μL of PRP containing 150,000 platelets/μL was incubated for 10 min at 22° C. with phosphate-buffered saline (PBS), 20 μg/mL C-34 mab, or 20 μg/mL C-34 that had previously been incubated for 30 min at 22° C. with varying concentrations of peptides. The PRP was then brought to 37° C. and stirred at 1200 rpm in a Chrono-Log lumi-aggregometer (Chrono-Log Corporation, Havertown, Pa.). Aggregation was initiated by the addition of 1 mg/mL ristocetin (Helena Laboratories, Beaumont, Tex.). For screening of bacteriophage clones displaying potential anti-mimotope peptides, 150 μl of PEG/NaCl precipitated phage was incubated with 250 μl of citrated PRP for one hour at 22° C., transferred to the aggregometer, following which ristocetin was added at a final concentration of 0.8 mg/ml.
# A peptide including the consensus sequence (SEQ ID NO: 38) was chemically synthesized (Genosys Biotechnologies, The Woodlands, Tex.). […] A modification of this peptide with a biotin attached to the amino-terminal alanine (N-hydroxysuccinimide hexanoic acid long chain spacer arm biotinylation) was also synthesized. One mg of the chemically synthesized biotinylated peptide was dissolved in one ml of water containing 20 μl of DMSO. […] Accordingly, approximately 10 μg of C-34 was incubated at 22° C. for 30 minutes with varying concentrations of test or control peptide, following which the mixture was added to PRP in a final volume of approximately 0.5 ml for an additional 10 minutes at 22° C. […] A similar pattern of C-34 antibody neutralization was observed when the non-biotinylated form of the peptide (having SEQ ID NO:38) was used, with half-maximal neutralization at approximately 3.0 μM.
# [2] = system: platelets; experiment: Effect of mimotope peptide by itself on platelet aggregation and on ADP-induced aggregation; format: cell-based, human
# [3] = system: mab SZ-2; experiment: ELISA: phage binding to biotinylated SZ-2 inhibits binding of SZ-2 to immobilized glycocalicin; conditions: phage clone
# Protocol: At this point, an ELISA assay can be used to evaluate individual clones, if the number of clones is high. In brief, phage having undergone two PEG precipitations, and subsequently adjusted for titer, can be incubated overnight with biotinylated mab, following which the mab-phage mixture can be added to wells of microtiter plates that have been previously coated with formalin-fixed platelets (or other suitable immobilized target recognized by the mab). Following a series of washing steps, avidin-peroxidase is added, the wells washed again, chromogenic substrate added, and the wells eventually read on an ELISA plate reader. The relative decrease in strength of signal in this assay provides guidance as to the most promising clones for further study. Consensus peptides identified in this manner can be chemically synthesized and characterized with respect to ability to bind original antibody. Peptides showing high binding affinity for the antibody can then be used as immunogens in mice and/or rabbits. […]
# [4] = system: formalin-fixed platelets; format: cell-based, human
# Protocol: as §1
# Further studies were undertaken with chemically synthesized peptide having SEQ ID NO:94: […]. This decapeptide was able to inhibit ristocetin-induced aggregation fully, with an IC50 occurring between 200–400 μg/mL (FIG. 9). […] In order to approximate more closely the native structure, peptides with an (Arg→Lys) substitution at position 7 were then studied. […] Whereas the […] Finally, both the wild-type GPIb alpha 228–237 peptide (SEQ ID NO:108) containing Gly at residue 233 and the PT-vWD variant with Val replacing Gly at this position (SEQ ID NO:107) were synthesized. […] Lyophilized peptides were reconstituted in PBS, pH 6.0 and 150 μL of varying dilutions incubated for 2–4 hr at 22° C. with 250 μL of formalin-fixed platelets ([…]), prior to aggregometry in which the addition of 1 U/mL purified vWF was followed by the addition of 0.9 mg/mL ristocetin.
# [5] = system: platelets in citrated PRP; experiment: Functional screening of candidate anti-mimotope bacteriophage clones, ristocetin-induced aggregation in citrated PRP; format: cell-based, human; conditions: 150 μL phage + 250 μL citrated PRP, 1 hr 22° C., 0.8 mg/mL ristocetin (FIG. 8)
# Protocol: FIG. 8 illustrates the functional screening of candidate anti-mimotope bacteriophage clones. Following incubation of 150 μL of the indicated bacteriophage clones with 250 μL of citrated PRP for 1 hr at 22° C., aggregation was initiated by the addition of 0.8 mg/mL ristocetin under stirring conditions at 37° C.;
# as §1
# The mimotope decapeptide itself was then used as a probe to search for “anti-mimotope” peptides. […]
# [6] = biological target: human platelet glycoprotein Ib/IX complex (human, UniProt P07359 17-652; P13224 26-206; P14770 17-177); experiment: cell-based or functional assay
# human platelet glycoprotein Ib/IX complex, sequence (P07359 17-652, chain 1 of 3): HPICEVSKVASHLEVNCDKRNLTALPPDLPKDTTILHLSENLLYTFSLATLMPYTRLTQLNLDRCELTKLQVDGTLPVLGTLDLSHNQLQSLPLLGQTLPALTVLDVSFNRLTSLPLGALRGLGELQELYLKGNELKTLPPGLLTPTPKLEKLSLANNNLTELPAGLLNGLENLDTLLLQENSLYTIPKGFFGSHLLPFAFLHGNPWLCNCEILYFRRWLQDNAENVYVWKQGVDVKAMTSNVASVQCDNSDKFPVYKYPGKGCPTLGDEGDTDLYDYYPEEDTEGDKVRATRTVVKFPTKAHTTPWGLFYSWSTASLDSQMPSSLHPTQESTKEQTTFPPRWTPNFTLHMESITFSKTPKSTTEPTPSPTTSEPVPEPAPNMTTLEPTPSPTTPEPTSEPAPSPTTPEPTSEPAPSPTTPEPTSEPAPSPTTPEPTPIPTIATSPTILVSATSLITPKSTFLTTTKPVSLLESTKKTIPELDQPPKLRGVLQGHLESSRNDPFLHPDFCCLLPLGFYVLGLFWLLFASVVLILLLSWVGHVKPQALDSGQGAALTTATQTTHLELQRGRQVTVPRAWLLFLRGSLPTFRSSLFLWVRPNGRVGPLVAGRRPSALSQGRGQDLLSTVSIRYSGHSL
# human platelet glycoprotein Ib/IX complex, sequence (P13224 26-206, chain 2 of 3): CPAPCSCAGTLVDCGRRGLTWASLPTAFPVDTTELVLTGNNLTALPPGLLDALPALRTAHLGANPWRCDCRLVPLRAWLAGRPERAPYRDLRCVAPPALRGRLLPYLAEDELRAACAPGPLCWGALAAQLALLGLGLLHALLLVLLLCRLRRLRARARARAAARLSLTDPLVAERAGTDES
# human platelet glycoprotein Ib/IX complex, sequence (P14770 17-177, chain 3 of 3): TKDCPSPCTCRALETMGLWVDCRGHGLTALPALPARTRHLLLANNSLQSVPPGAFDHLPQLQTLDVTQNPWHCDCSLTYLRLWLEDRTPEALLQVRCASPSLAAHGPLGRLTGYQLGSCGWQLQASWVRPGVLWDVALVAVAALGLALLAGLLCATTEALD
molecule,measurement,setting,value
AWNWRYREYV [SEQ ID NO:1],neutralization of C-34 inhibition of ristocetin-induced aggregation,"[1]; 0.14 μM peptide, 20 μg/ml mab C-34 (FIG. 3)",continued inhibition
same,neutralization of C-34 inhibition of ristocetin-induced aggregation,"[1]; 0.27 μM peptide, 20 μg/ml mab C-34 (FIG. 4)",partial neutralization
same,neutralization of C-34 inhibition of ristocetin-induced aggregation,"[1]; 0.55 μM peptide, 20 μg/ml mab C-34 (FIG. 5)",partial neutralization
same,neutralization of C-34 inhibition of ristocetin-induced aggregation,"[1]; 1.1 μM peptide, 20 μg/ml mab C-34 (FIG. 6)",partial neutralization
same,neutralization of C-34 inhibition of ristocetin-induced aggregation,"[1]; 2.3 μM peptide, 20 μg/ml mab C-34 (FIG. 7)",complete neutralization
same,influence on ADP-induced aggregation,[2]; non-specific effects,no influence
same,induction of platelet aggregation by the peptide by itself,"[2]; peptide alone, PRP",did not induce platelet aggregation
WNWRYREYV [SEQ ID NO:38],EC50,"[1]; 20 μg/mL C-34, citrated PRP, 1 mg/mL ristocetin, read-out: half-maximal neutralization of the C-34",~3000 nM
WHWRSSWKSG [SEQ ID NO:83],neutralization of SZ-2 binding to immobilized glycocalicin,[3],fully neutralizing
"RHVAWWRQGV [SEQ ID NO:94, RHVAWWRQGV]",IC50 for inhibition of ristocetin-induced aggregation,[4],200 to 400 µg/mL
same,"inhibition of ristocetin-induced aggregation (extent, in words)","[4]; formalin-fixed platelets, 1 U/mL purified vWF, 0.9 mg/mL ristocetin",fully
same,inhibitory activity of bacteriophage clone in functional platelet assay,[5],inhibitory activity above background level
RHVAWWRQGV [chemically synthesized peptide having SEQ ID NO:94],IC50 of inhibition of ristocetin-induced aggregation of formalin-fixed platelets with vWF,[6],200 to 400 µg/mL
